Converted amounts (≈) assume the structure as drawn. Read-outs that look alike come from different tables or passages of the source.
What was measured:
[1] = biological target: T1, A. baumannii ATP synthase (Acinetobacter baumannii, UniProt A3M139); assay: AB ATP synthase inhibition: NADH-driven ATP synthesis in inverted inner membrane vesicles, luciferin/luciferase readout; type: biochemical; details: for Hill coefficient (Hill slope): fit of ATP synthesis dose response curve
T1 construct: endogenous electron transport chains of inverted inner membrane vesicles were energized with NADH; endogenous in cells; host or cells: inverted inner membrane vesicles prepared from A. baumannii ATCC 17978 cells
Method: Once synthesized, the pyridine compounds were tested for their ability to inhibit ATP synthase activity using our previously reported luciferin/luciferase assay. Briefly, endogenous electron transport chains of inverted inner membrane vesicles were energized with NADH to generate a proton gradient and to drive ATP synthesis. ATP was measured via luminescence from the luciferase-catalyzed oxidation of D-luciferin. Luminescence activities across increasing inhibitor concentrations were corrected for gradient independent background sources of ATP by comparison with a control containing the protonophore CCCP (carbonyl cyanide 3-chlorophenylhydrazone). The data were then fit to a four-parameter logistic dose–response curve, from which IC50 values and Hill coefficients were determined using a nonlinear least-squares regression.
A. baumannii (ATCC 17978) cells were grown in LB medium at 37 °C with shaking at 150 rpm and harvested by centrifugation in the late exponential phase of growth. Cells were resuspended in TMG buffer (50 mM Tris-HCl, pH 7.5, 5 mM MgCl2, 10% v/v glycerol) with 1 mM phenylmethanesulfonyl fluoride, 1 mM dithiothreitol, and a small amount of DNase and lysed by two passes through an Avestin B15 homogenizer at 19,000 psi. Lysate was cleared by centrifugation at 9000g and inverted membrane vesicles were collected from the supernatant by centrifugation at 169,000g. To reduce background ATP synthesis activity in AB vesicles, it was important to wash the membranes by resuspending in TMG buffer and centrifuging again at 169,000g. Washed pellets were resuspended in TMG buffer, and aliquots were stored at −80 °C. Once thawed, aliquots were not refrozen. Protein concentration in membrane vesicles was determined using a modified Lowry assay.
In vitro ATP synthesis activity of inverted inner membrane vesicles was measured as previously described. A reaction solution was prepared containing 5 mM tricine-KOH, pH 8.0, 50 mM KCl, 2.5 mM MgCl2, 0.1 mM adenosine diphosphate, 3.75 mM potassium phosphate, and 2.5 mM NADH and distributed into a 96-well plate. NADH-driven ATP synthesis was initiated by addition of inverted vesicles to 50 μg/mL and allowed to proceed for 10 min. The reaction was stopped by transferring an aliquot into 1% trichloroacetic acid. The stopped reaction was diluted 100-fold with deionized water and a sample was transferred to luciferase solution containing 25 mM tricine-NaOH, pH 7.8, 5 mM MgSO4, 0.1 mM EDTA, 0.1 mM NaN3, 150 μg/mL luciferin, and 7.5 μg/mL luciferase. Luminescence was measured in an opaque white 96-well plate using a BioTek H1 multimode plate reader. Each replicate set included a positive control containing DMSO with no compound and a negative control containing carbonyl cyanide 3-chlorophenylhydrazone (CCCP). Luminescence values were corrected for background by subtracting the CCCP control and normalized to the luminescence of the DMSO control. Normalized activity was fit using a variable-slope dose response curve. Nonlinear regression, including prediction of 95% confidence bands, and pairwise comparisons of fits using the F-test method were completed using GraphPad Prism10. Relativeactivity=1/1+(c/IC50)^Hillslope […]
Figure S1. ATP synthesis inhibition by all pyridine compounds in order of WSA compound number. ATP synthesis activities in inverted inner membrane vesicles prepared from AB cells were measured in the presence of 0.0625-64 µg/mL, corrected for background ATP, and normalized to activity with DMSO alone (see methods). For each plot, dots are normalized activities at each concentration (n≥3) on a log 2 scale, solid lines are fitted dose response curves, and dashed lines show the 95% confidence range of the fit. IC50

[2] = system: HEK 293 cells; assay: XTT cell viability cytotoxicity assay; details: n = 3, 24 h treatment
[3] = system: AB BAA 1605; assay: Checkerboard assay with colistin sulfate, BAA 1605; details: for MIC: Acinetobacter baumannii, BAA1605, read-out: MIC alone, AB BAA 1605; for fold change of MIC, AB BAA 1605: alone vs +colistin
Method: (§1) Synthesized compounds in DMSO (2–128 μg/mL, row G-A) were combined with colistin sulfate in ultra purified water (0.125–32 μg/mL, column 2–10) in a 96-well microtiter plate checkerboard assay against ATCC 17978 and BAA-1605 (MDR). Briefly, liquid cultures of bacteria were grown for 14–16 h by inoculating a single bacterial culture into 10 mL TSB. To each well 88 μL of TSB, 10 μL of bacteria culture, and 1 from each master plate was added (see layout below). Plates were covered and incubated at 37 °C for 12–18 h.

[4] = system: AB ATCC 17978; assay: Checkerboard assay with colistin sulfate, ATCC 17978; details: for MIC: Acinetobacter baumannii, ATCC17978, read-out: MIC alone, AB ATCC 17978; for fold change of MIC, AB ATCC 17978: alone vs +colistin; for MIC +colistin, AB ATCC 17978: with 0.5 μg/mL colistin
Method: as §1

[5] = system: MDR AB BAA 1605; assay: Broth microdilution antimicrobial susceptibility assay, MDR isolate; details: Acinetobacter baumannii, BAA1605, read-out: MIC, MDR AB BAA 1605
[6] = system: AB ATCC 17978; assay: Broth microdilution antimicrobial susceptibility assay, susceptible isolate; details: Acinetobacter baumannii, ATCC17978, read-out: MIC, AB ATCC 17978
[7] = Figure 2, read-out: IC50, AB ATP synthase inhibition (converted)
[8] = synergistic FICI ≤ 0.5, additivity FICI 0.5 < x < 1
[9] = inverted inner membrane vesicles, 0.0625-64 µg/mL, n≥3, Table S1, read-out: AB ATP Synthase Inhibition IC50 (converted)

T1 sequence (A3M139 whole entry): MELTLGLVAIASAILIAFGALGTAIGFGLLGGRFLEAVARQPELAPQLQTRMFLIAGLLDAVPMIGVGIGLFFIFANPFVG

Compound	IC50 [1, 7] [nM]	Hill coefficient (Hill slope) [1]	MIC, HEK 293 (cytotoxicity) [2] [µg/mL]	MIC [5] [µg/mL]	MIC [6] [µg/mL]	IC50 [1, 9] [nM]	other results
CN1CCN(CCNCc2cc(-c3ccc(N(C)C)cc3)cnc2SCc2ccccc2)CC1 [WSA 276]	673	-0.6	16 (≈ 33.6 µM)	32 (≈ 67.3 µM)	16 (≈ 33.6 µM)	–	MIC [3]: 32 µg/mL; fold change of MIC, AB BAA 1605 [3]: 4; fractional inhibitory concentration index (FICI) / interaction with colistin, MDR AB BAA 1605 [3, 8]: synergy; MIC +colistin, AB BAA 1605 ([3]; with 0.25 μg/mL colistin): 8 (0.25 μg/mL Col); MIC [4]: 16 µg/mL; fold change of MIC, AB ATCC 17978 [4]: 2; MIC +colistin, AB ATCC 17978 [4]: 8 (0.5 μg/mL Col)
Cc1ccc(-c2cnc(SCc3ccccc3)c(CNCCC3CCN(C4CCCC4)CC3)c2)cc1 [WSA 289]	480	-0.7	16 (≈ 32 µM)	32 (≈ 64 µM)	16 (≈ 32 µM)	–	MIC [3]: 32 µg/mL; fold change of MIC, AB BAA 1605 [3]: 2; MIC +colistin, AB BAA 1605 ([3]; with 0.125 μg/mL colistin): 16 (0.125 μg/mL Col); MIC [4]: 16 µg/mL; fold change of MIC, AB ATCC 17978 [4]: 4; fractional inhibitory concentration index (FICI) / interaction with colistin, AB ATCC 17978 [4, 8]: ≤ 0.5
COc1ccc(-c2cnc(SCc3ccccc3)c(CNCCN3CCN(C)CC3)c2)cc1 [WSA 278]	2070	-0.8	16 (≈ 34.6 µM)	128 (≈ 277 µM)	64 (≈ 138 µM)	–	–
Fc1ccc(-c2cnc(SCc3ccccc3)c(CNCCC3CCN(C4CCCC4)CC3)c2)c(F)c1 [WSA 292]	–	-1.1	4 (≈ 7.67 µM)	32 (≈ 61.3 µM)	16 (≈ 30.7 µM)	997	–
COc1ccc(-c2cnc(SCc3ccccc3)c(CNCCC3CCN(C4CCCC4)CC3)c2)cc1F [WSA 290]	–	-0.7	4 (≈ 7.49 µM)	32 (≈ 60 µM)	32 (≈ 60 µM)	356	–
Fc1ccc(-c2cnc(SCc3ccccc3)c(CNCc3ccc(CN4CCCC4)cc3)c2)c(F)c1 [WSA 299]	–	-1.1	16 (≈ 31 µM)	128 (≈ 248 µM)	32 (≈ 62.1 µM)	2130	–
Cc1ccc(-c2cnc(SCc3ccccc3)c(CNCCN3CCN(C)CC3)c2)cc1 [WSA 280]	1540	-0.8	16 (≈ 35.8 µM)	32 (≈ 71.6 µM)	16 (≈ 35.8 µM)	–	MIC [3]: 32 µg/mL; fold change of MIC, AB BAA 1605 [3]: 2; MIC +colistin, AB BAA 1605 ([3]; with 0.125 μg/mL colistin): 16 (0.125 μg/mL Col); MIC [4]: 16 µg/mL; fold change of MIC, AB ATCC 17978 [4]: 2; MIC +colistin, AB ATCC 17978 [4]: 8 (0.5 μg/mL Col)
CCN1CCC(CCNCc2cc(-c3ccccc3)cnc2SCc2ccccc2)CC1 [WSA 304]	–	-0.7	8 (≈ 18 µM)	64 (≈ 144 µM)	32 (≈ 71.8 µM)	1370	–
COc1ccc(-c2cnc(SCc3ccccc3)c(CNCc3ccc(CN4CCCC4)cc3)c2)cc1 [WSA 296]	863	-0.6	16 (≈ 31.4 µM)	128 (≈ 251 µM)	32 (≈ 62.8 µM)	–	–
colistin [reference compound]	–	–	–	–	–	–	MIC alone, AB BAA 1605 ([3]; without partner drug): 1 µg/mL; MIC alone, AB ATCC 17978 ([4]; without partner drug): 2 µg/mL
c1ccc(CSc2ncc(-c3ccccc3)cc2CNCc2ccc(CN3CCCC3)cc2)cc1 [WSA 294]	1230	-0.7	8 (≈ 16.7 µM)	32 (≈ 66.7 µM)	32 (≈ 66.7 µM)	–	–
c1ccc(CSc2ncc(-c3ccccc3)cc2CNCCC2CCN(C3CCCC3)CC2)cc1 [WSA 302]	988	-0.8	16 (≈ 32.9 µM)	64 (≈ 132 µM)	64 (≈ 132 µM)	–	–
COc1ccc(-c2cnc(SCc3ccccc3)c(CNCc3ccc(CN4CCCC4)cc3)c2)cc1F [WSA 297]	796	-0.8	8 (≈ 15.2 µM)	128 (≈ 243 µM)	32 (≈ 60.6 µM)	–	–
CN1CCN(CCNCc2cc(Br)cnc2SCc2ccccc2)CC1 [WSA 271]	–	-0.7	64 (≈ 147 µM)	> 128	> 128	2300	–
CCN1CCC(CCNCc2cc(Br)cnc2SCc2ccccc2)CC1 [WSA 272]	–	-0.6	32 (≈ 71.4 µM)	128 (≈ 285 µM)	128 (≈ 285 µM)	4460	–
CCN1CCC(CCNCc2cc(-c3ccc(C)cc3)cnc2SCc2ccccc2)CC1 [WSA 300]	–	-0.7	4 (≈ 8.7 µM)	32 (≈ 69.6 µM)	16 (≈ 34.8 µM)	674	–
CCN1CCC(CCNCc2cc(-c3ccc(F)cc3F)cnc2SCc2ccccc2)CC1 [WSA 308]	–	-0.9	16 (≈ 33.2 µM)	64 (≈ 133 µM)	32 (≈ 66.4 µM)	1810	–
Brc1cnc(SCc2ccccc2)c(CNCc2ccc(CN3CCCC3)cc2)c1 [WSA 293]	–	-1.2	64 (≈ 133 µM)	64 (≈ 133 µM)	32 (≈ 66.3 µM)	3730	–
